Results taken from ChEMBL document CHEMBL1909046, “DrugMatrix in vitro pharmacology data”.

Experiments:
[1] = target: 5-hydroxytryptamine receptor 2B (Homo sapiens, UniProt P41595); format: cell membranes, CHO-K1, Membrane; settings: cho-k1; further: in other assays of this panel Not Active means under 50% inhibition at 10 µM
[2] = DRUGMATRIX: Sodium/nucleoside co-transporter radioligand binding (ligand: nitrobenzylthioinosine); format: cell membranes, Cavia porcellus, Dunkin-Hartley, Cerebral cortex, Membrane; settings: Not Active = under 50% inhibition at 10 µM
[3] = target: Delta-type opioid receptor (Homo sapiens, UniProt P41143); format: cell membranes, HEK293, Membrane; settings: hek293; further: in other assays of this panel Not Active means under 50% inhibition at 10 µM
Chain of Delta-type opioid receptor (P41143 whole entry): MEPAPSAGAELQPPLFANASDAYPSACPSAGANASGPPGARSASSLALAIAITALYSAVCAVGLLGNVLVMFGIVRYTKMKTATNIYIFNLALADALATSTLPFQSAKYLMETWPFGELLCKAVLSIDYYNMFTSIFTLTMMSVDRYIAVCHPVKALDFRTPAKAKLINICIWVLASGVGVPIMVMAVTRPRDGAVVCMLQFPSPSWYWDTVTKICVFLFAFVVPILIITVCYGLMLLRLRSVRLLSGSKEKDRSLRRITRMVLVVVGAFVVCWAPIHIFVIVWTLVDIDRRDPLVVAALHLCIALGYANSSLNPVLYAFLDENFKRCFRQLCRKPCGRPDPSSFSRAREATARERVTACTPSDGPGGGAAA

[4] = target: T1, Muscarinic acetylcholine receptor M4 (Homo sapiens, UniProt P08173); format: cell membranes, CHO-K1, Membrane; settings: cho-k1; further: in other assays of this panel Not Active means under 50% inhibition at 10 µM
T1 sequence (P08173 whole entry): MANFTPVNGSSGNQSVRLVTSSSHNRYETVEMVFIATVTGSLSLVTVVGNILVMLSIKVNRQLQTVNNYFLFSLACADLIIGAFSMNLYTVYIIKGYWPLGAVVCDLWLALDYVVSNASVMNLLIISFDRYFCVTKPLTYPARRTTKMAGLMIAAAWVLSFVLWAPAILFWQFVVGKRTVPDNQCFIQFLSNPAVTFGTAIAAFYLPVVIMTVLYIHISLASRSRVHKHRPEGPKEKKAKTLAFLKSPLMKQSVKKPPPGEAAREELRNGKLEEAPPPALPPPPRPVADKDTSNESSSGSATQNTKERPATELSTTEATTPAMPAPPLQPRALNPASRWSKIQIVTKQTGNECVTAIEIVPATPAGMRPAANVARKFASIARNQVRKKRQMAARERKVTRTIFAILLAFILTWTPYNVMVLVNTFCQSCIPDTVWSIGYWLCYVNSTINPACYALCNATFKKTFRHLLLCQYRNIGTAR

Histamine H2 receptor = Histamine H2 receptor (Homo sapiens, UniProt P25021); format: cell membranes, CHO-K1, Membrane; settings: cho-k1; further: in other assays of this panel Not Active means under 50% inhibition at 10 µM
Chain of Histamine H2 receptor (P25021 whole entry): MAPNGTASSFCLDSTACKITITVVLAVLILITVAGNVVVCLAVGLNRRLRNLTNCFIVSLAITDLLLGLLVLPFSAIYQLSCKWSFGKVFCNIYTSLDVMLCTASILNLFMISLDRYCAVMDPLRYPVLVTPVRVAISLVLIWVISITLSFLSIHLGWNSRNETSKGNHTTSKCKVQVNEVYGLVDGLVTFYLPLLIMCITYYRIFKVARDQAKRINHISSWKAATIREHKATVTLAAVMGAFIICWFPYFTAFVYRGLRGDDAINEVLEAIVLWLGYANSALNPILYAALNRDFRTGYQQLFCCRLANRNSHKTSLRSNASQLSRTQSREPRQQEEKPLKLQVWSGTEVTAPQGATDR

Cytochrome P450 2D6 = Cytochrome P450 2D6 (Homo sapiens, UniProt P10635); settings: bti-tn-5b1-4; further: in other assays of this panel Not Active means under 50% inhibition at 10 µM
Chain of Cytochrome P450 2D6 (P10635 whole entry): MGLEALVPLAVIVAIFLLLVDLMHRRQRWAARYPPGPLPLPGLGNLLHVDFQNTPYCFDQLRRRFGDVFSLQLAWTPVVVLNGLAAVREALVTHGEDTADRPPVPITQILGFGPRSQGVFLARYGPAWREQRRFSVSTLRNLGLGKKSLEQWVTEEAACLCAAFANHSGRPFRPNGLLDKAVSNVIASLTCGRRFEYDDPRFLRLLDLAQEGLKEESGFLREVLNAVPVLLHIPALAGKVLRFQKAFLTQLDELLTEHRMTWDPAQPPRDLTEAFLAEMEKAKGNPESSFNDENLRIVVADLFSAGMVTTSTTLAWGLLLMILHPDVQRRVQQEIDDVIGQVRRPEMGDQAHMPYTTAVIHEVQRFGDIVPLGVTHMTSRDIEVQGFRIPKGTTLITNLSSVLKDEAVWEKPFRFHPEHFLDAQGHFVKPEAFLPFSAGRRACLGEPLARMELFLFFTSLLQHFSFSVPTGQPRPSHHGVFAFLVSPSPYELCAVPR

[5] = DRUGMATRIX: GABAA, Chloride Channel, TBOB radioligand binding (ligand: [3H] TBOB); format: cell membranes, Rattus norvegicus, Wistar, Cerebral cortex, Membrane; settings: Not Active = under 50% inhibition at 10 µM
Carbonic anhydrase 2 = Carbonic anhydrase 2 (Homo sapiens, UniProt P00918); assay: DRUGMATRIX: Carbonic Anhydrase II enzyme inhibition (substrate: 4-Nitrophenyl acetate (4-NPA)); format: tissue-based, Erythrocyte; settings: Not Active = under 50% inhibition at 10 µM

Chain of 5-hydroxytryptamine receptor 2B (P41595 whole entry): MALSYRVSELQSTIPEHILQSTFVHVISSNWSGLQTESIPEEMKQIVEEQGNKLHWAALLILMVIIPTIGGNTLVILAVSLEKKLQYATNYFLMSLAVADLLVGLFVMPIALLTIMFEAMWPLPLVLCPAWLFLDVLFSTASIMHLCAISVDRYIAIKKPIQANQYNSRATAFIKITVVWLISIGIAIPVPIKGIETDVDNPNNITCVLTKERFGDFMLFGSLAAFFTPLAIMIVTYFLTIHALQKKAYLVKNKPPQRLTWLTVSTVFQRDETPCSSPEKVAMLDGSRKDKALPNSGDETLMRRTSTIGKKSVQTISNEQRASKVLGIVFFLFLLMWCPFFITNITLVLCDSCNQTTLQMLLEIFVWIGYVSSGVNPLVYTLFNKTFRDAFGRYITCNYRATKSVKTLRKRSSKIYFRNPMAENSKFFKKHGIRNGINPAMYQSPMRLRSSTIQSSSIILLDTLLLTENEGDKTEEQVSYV

Row | Structure (SMILES) | IC50 [1] | IC50 [2] | Ki [2] | IC50 [3] | IC50 [4] | IC50 (Histamine H2 receptor) | IC50 (Cytochrome P450 2D6) | Ki (Cytochrome P450 2D6) | IC50 [5] | Ki [5] | IC50 (Carbonic anhydrase 2; erythrocyte) | IC50 (Carbonic anhydrase 2; read-out: IC50) [nM]
1 | Cc1cccc(Nc2ccncc2S(=O)(=O)NC(=O)NC(C)C)c1 [TORSEMIDE] | Not Active | Not Active | Not Active | Not Active | Not Active | Not Active | Not Active | Not Active | Not Active | Not Active | Not Active | 
2 | CC(C)C[C@H](NC(=O)[C@@H](O)[C@H](N)Cc1ccccc1)C(=O)O [UBENIMEX] | Not Active | Not Active | Not Active | Not Active | Not Active | Not Active | Not Active | Not Active | Not Active | Not Active | Not Active | 
3 | CC[C@]1(O)C[C@@H]2CN(CCc3c([nH]c4ccccc34)[C@@](C(=O)OC)(c3cc4c(cc3OC)N(C)[C@H]3[C@@](O)(C(=O)OC)[C@H](OC(C)=O)[C@]5(CC)C=CCN6CC[C@]43[C@@H]65)C2)C1 [VINBLASTINE] | Not Active | Not Active | Not Active | Not Active | Not Active | Not Active | Not Active | Not Active | Not Active | Not Active | Not Active | 
4 | CC(=O)CC(c1ccccc1)c1c(O)c2ccccc2oc1=O (stereo unspecified) [WARFARIN] | Not Active | Not Active | Not Active | Not Active | Not Active | Not Active | Not Active | Not Active | Not Active | Not Active | Not Active | 
5 | C[C@@H](N)[C@H]1CC[C@H](C(=O)Nc2ccncc2)CC1 [Y-27632] | Not Active | Not Active | Not Active | Not Active | Not Active | Not Active | Not Active | Not Active | Not Active | Not Active | Not Active | 
6 | [Cl-].[Cl-].[Zn+2] [ZINC CHLORIDE] | Not Active | Not Active | Not Active | Not Active | Not Active | Not Active | Not Active | Not Active | Not Active | Not Active |  | 1160
